For the assay, the target named is human enteropeptidase (hEP), enterokinase (Homo sapiens, UniProt P98073). Briefly: cryo-EM structure of inhibited hEP-core ([…] Å); SPR affinity; enzyme activity inhibition. On the set-up: gene TMPRSS15; hEP-core resolved; SPR: commercial hEP. The class given is binding.

The structures appear in SMILES notation.

A word on the Kd: it is a measure of binding affinity in units of concentration. Higher therefore signals a looser complex.

Chain of human enteropeptidase (hEP), enterokinase (P98073 182-784): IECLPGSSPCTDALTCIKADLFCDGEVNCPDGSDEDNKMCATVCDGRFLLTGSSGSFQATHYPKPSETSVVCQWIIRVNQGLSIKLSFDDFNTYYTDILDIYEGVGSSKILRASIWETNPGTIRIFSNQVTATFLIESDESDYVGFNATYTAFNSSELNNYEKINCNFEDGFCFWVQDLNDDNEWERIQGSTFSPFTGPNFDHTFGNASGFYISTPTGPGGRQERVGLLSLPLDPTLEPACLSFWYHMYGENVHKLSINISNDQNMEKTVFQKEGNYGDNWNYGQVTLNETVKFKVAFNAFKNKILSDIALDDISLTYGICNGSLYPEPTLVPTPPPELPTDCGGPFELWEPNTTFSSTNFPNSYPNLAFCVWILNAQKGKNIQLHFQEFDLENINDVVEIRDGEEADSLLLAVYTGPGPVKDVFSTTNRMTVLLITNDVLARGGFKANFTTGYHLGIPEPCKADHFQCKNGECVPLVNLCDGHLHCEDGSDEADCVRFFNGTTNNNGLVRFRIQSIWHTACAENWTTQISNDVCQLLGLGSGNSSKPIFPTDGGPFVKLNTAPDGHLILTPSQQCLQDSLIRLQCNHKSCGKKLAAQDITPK
Chain of human enteropeptidase (hEP), enterokinase (P98073 785-1019): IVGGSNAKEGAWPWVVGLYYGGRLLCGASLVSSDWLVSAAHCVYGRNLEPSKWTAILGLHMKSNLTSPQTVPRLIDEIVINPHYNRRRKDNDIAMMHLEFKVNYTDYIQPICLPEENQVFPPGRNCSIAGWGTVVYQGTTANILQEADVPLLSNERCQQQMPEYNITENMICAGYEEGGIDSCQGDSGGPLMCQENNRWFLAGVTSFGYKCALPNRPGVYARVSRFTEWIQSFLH

Compound `N=C(N)c1ccc2cc(OC(=O)c3ccc(N=C(N)N)cc3)ccc2c1` [nafamostat] returned a Kd of 95.1 µM. In other words, the double-digit micromolar range.
